Four compounds from ChEMBL document CHEMBL1201862, “PubChem BioAssay data set” (2004) can be followed below.

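Tested at 5 concentrations; 48 h exposure; 96-well plates; endpoints linearly interpolated, else capped at highest concentration. GI50 is the concentration that inhibits growth by half.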 The source made the active and inactive calls. Cut-off read from the data, not from the text of the source: active = GI50 up to about 1.1 µM and inactive = higher.

Some test systems named below: U-251; SF-268; M14; COLO 205; TK-10; A549; MDA-MB-231; SK-MEL-2; SNB-75; SF-539; SR; UACC-257; T47D; Hs-578T; DU-145; IGROV-1; NCI-H522.
What all share (assay): NCI-60 cell line screen, 48 h

In the case of `C[N+]1(CCC[N+]2(C)CC3C4C=CC(CC4)C3C2)CCOCC1` (stereo not drawn), the GI50 in the assay on U-251, in the assay with SF-268, with M14, in the assay with COLO 205, with TK-10 and in the assay on A549 was > 100 µM (inactive) each time. For the same compound, the GI50 in the assay with MDA-MB-231, in the assay with SK-MEL-2, in the assay with SNB-75, in the assay with SF-539, with SR and in the assay on UACC-257 was > 100 µM (inactive) in each case. Besides, the GI50 with T47D, in the assay with Hs-578T, in the assay with DU-145, in the assay on IGROV-1 and in the assay on NCI-H522 was > 100 µM (inactive) each time.

Regarding `CC(=O)Oc1ccc(/C=C/C(=O)NCCOC(=O)/C=C/c2ccc(OC(C)=O)c(OC(C)=O)c2)cc1OC(C)=O`, the GI50 with U-251 was 28.4 µM (inactive); in the assay on SF-268, 20 µM (inactive); in the assay with M14, 27.8 µM (inactive); in the assay on COLO 205, 42.5 µM (inactive); in the assay on TK-10, 23 µM (inactive); in the assay with A549 it was 57.5 µM (inactive). The GI50 with MDA-MB-231 was 45.2 µM (inactive); in the assay with SK-MEL-2, 46.5 µM (inactive); in the assay with SNB-75 it was 20.1 µM (inactive); in the assay on SF-539, 35.7 µM (inactive); in the assay with SR, 14.1 µM (inactive); in the assay with UACC-257, 31.3 µM (inactive). Besides, the GI50 in the assay on T47D is 20.4 µM (inactive); in the assay on Hs-578T it was 33.6 µM (inactive); in the assay on DU-145, 20.6 µM (inactive); with IGROV-1, 33 µM (inactive); in the assay on NCI-H522 it was 8.97 µM (inactive).

As to `COc1ccc(/C=N/N=C(\N)NO)c(O)c1`, the GI50 was > 10 µM (inactive) in the assay with U-251; > 10 µM (inactive) in the assay on SF-268; 5.01 µM (inactive) with M14; > 10 µM (inactive) in the assay with COLO 205; > 10 µM (inactive) in the assay on TK-10; > 10 µM (inactive) with A549. Further, the GI50 was > 10 µM (inactive) in the assay on MDA-MB-231; > 10 µM (inactive) with SK-MEL-2; 0.0678 µM (active) in the assay with SNB-75; > 10 µM (inactive) in the assay with SF-539; 2.81 µM (inactive) with SR; 6.52 µM (inactive) in the assay on UACC-257. The GI50 in the assay on T47D was > 10 µM (inactive); in the assay with Hs-578T it was > 10 µM (inactive); in the assay on DU-145 it was > 10 µM (inactive); in the assay on IGROV-1, 8.77 µM (inactive); in the assay on NCI-H522 it was > 10 µM (inactive).

On to `CN(C)c1ccc(C2CC(c3ccc4ccccc4c3O)=NN2c2ccc([N+](=O)[O-])cc2[N+](=O)[O-])cc1` (stereo not drawn), for which the GI50 was 41.9 µM (inactive) with U-251; 98.4 µM (inactive) with SF-268; 63 µM (inactive) in the assay with M14; 38.7 µM (inactive) in the assay with COLO 205; > 100 µM (inactive) in the assay with TK-10; 32.3 µM (inactive) in the assay with A549. Further, the GI50 in the assay with MDA-MB-231 is 22 µM (inactive); with SK-MEL-2, 25.5 µM (inactive); in the assay with SNB-75, > 100 µM (inactive); in the assay with SF-539, 50.9 µM (inactive); in the assay with SR, 12.6 µM (inactive); with UACC-257, 58.5 µM (inactive). Moreover, the GI50 with T47D is 68.1 µM (inactive); in the assay with Hs-578T, 48.8 µM (inactive); in the assay with DU-145, 64.9 µM (inactive); with IGROV-1, 26.2 µM (inactive); in the assay with NCI-H522, 21 µM (inactive).
